ChEMBL document CHEMBL1156552, “Novel ligands rationally designed for characterizing I2-imidazoline binding sites nature and functions” (J Med Chem, 2008)
Active and inactive are the calls of the source. The calls are words filed in the database; no cut-off is given here.

Legend:
Nischarin [1] = target: T1, Nischarin (Rattus norvegicus, UniProt Q4G017); assay: Displacement of [3H]clonidine from Imidazoline receptor 1 in Sprague-Dawley rat kidney membrane; type: cell membranes
[2] = Displacement of [3H]2-BFI from Imidazoline receptor 2 in Sprague-Dawley rat whole brain membrane
[3] = Displacement of [3H]RX821002 from Adrenergic alpha2 receptor in Sprague-Dawley rat whole brain membrane
Rattus norvegicus [4] = species: Rattus norvegicus; assay: Selectivity ratio, IC50 for Imidazoline receptor 1 in Sprague-Dawley rat kidney membrane to Ki for Imidazoline receptor 2 in Sprague-Dawley rat whole brain membrane; type: cell membranes
Rattus norvegicus [5] = species: Rattus norvegicus; assay: Selectivity ratio, IC50 for Imidazoline receptor 1 in Sprague-Dawley rat kidney membrane to Ki for alpha2 adrenoceptor in Sprague-Dawley rat whole brain membrane; type: cell membranes
Mus musculus [6] = assay: Antinociceptive activity in CD1 mouse at 10 mg/kg, sc after 30 mins by tail flick test; type: functional, organism-based; design: dose 10 mg/kg
Mus musculus [7] = assay: Increase in morphine-induced analgesia in CD1 mouse at 10 mg/kg, sc after 30 mins by tail flick test relative to control; type: functional; conditions: route subcutaneous
Mus musculus [8] = assay: Decrease in morphine-induced analgesia in CD1 mouse at 10 mg/kg, sc after 30 mins by tail flick test relative to control; type: functional; design: scale not given: the % may be the effect or the level left; conditions: route subcutaneous
Mus musculus [9] = assay: Antinociceptive activity in CD1 mouse at 20 mg/kg, sc after 30 mins by tail flick test; type: functional, organism-based; design: dose 20 mg/kg
Mus musculus [10] = assay: Decrease in morphine-induced analgesia in CD1 mouse at 20 mg/kg, sc after 30 mins by tail flick test relative to control; type: functional; design: scale not given: the % may be the effect or the level left; conditions: route subcutaneous
Mus musculus [11] = assay: Reversal of decrease in morphine-induced analgesia in idazoxan pretreated CD1 mouse at 10 mg/kg, sc by tail flick assay; type: functional, organism-based; design: dose 10 mg/kg
[12] = Binding affinity to Imidazoline receptor 2
Mus musculus [13] = assay: Effect on morphine-induced analgesia in yohimbine pretreated CD1 mouse at 10 mg/kg, sc by tail flick test; type: functional, organism-based; design: dose 10 mg/kg
Mus musculus [14] = assay: Effect on morphine-induced analgesia in efaroxan pretreated CD1 mouse at 10 mg/kg, sc by tail flick test; type: functional, organism-based; design: dose 10 mg/kg
Nischarin [15] = target: T1, Nischarin; assay: Displacement of [3H]clonidine from Imidazoline receptor 1 rat PC-12 cells; type: cell-based

T1 sequence (Q4G017 whole entry): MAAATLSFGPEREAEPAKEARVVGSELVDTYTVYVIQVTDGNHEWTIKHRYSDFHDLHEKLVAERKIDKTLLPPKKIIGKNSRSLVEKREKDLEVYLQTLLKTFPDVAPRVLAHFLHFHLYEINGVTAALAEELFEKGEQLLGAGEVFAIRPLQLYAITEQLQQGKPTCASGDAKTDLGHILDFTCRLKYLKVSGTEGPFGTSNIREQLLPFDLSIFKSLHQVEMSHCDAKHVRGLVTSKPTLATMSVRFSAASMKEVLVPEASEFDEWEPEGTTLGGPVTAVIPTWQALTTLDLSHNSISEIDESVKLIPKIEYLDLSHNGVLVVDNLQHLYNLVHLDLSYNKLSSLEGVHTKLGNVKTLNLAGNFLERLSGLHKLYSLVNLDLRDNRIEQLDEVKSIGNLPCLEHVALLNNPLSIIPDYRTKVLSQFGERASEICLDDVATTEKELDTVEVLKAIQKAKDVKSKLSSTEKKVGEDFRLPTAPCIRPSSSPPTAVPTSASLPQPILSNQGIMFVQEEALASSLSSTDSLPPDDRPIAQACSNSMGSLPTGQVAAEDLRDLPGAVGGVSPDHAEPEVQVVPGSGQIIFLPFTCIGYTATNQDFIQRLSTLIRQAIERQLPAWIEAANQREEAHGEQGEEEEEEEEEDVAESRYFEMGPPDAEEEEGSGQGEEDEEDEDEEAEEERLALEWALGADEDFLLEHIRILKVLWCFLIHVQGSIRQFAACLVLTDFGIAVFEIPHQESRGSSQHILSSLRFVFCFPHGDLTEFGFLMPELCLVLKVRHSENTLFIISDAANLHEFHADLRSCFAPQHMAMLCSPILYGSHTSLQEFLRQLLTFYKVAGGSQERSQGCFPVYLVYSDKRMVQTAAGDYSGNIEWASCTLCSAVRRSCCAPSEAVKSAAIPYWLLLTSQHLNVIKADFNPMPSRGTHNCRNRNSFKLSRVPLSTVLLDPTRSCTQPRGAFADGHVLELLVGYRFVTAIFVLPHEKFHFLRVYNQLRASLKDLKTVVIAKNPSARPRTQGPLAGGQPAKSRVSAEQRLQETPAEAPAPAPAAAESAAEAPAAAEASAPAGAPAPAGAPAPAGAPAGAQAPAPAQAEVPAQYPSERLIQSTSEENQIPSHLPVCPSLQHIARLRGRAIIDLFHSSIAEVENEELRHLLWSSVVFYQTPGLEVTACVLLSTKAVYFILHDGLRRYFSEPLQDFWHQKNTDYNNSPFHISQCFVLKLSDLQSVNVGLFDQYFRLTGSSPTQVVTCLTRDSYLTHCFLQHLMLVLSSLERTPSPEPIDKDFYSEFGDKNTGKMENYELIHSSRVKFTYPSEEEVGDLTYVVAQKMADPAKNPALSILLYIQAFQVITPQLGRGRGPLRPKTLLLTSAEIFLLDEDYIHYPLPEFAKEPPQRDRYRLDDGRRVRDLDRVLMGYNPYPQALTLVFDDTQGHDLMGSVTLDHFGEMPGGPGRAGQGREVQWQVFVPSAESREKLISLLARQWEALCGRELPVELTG

With `c1csc(CCC2=NCCN2)c1` the IC50 (Nischarin [1]) was 2880 nM, the Ki [2] was 7.72 nM and the Ki [3] was 820 nM. For the same compound, the Ratio (Rattus norvegicus [4]) was 373, the Ratio (Rattus norvegicus [5]) was 106 and the Activity (Mus musculus [6]) was “inactive”. The Activity (Mus musculus [7]) was 34%.

For `c1ccc(-c2ccsc2)c(CCC2=NCCN2)c1`, the IC50 (Nischarin [1]) was 6890 nM, the Ki [2] was 8.89 nM and the Ki [3] was 293 nM. For the same compound, the Ratio (Rattus norvegicus [4]) was 775, the Ratio (Rattus norvegicus [5]) was 32.9 and the Activity (Mus musculus [6]) was “inactive”. The Activity (Mus musculus [8]) was -59%.

`Cc1ccccc1CCC1=NCCN1` gave an IC50 (Nischarin [1]) of 7360 nM, a Ki [2] of 1.68 nM and a Ki [3] of 558 nM. For the same compound, the Ratio (Rattus norvegicus [4]) was 4380, the Ratio (Rattus norvegicus [5]) was 332 and the Activity (Mus musculus [6]) was “inactive”. The Activity (Mus musculus [8]) was -44%.

For `C1CCC(CCC2=NCCN2)CC1`, the IC50 (Nischarin [1]) was 3570 nM, the Ki [2] was 4.8 nM and the Ki [3] was 2960 nM. The Ratio (Rattus norvegicus [4]) was 744, the Ratio (Rattus norvegicus [5]) was 617 and the Activity (Mus musculus [6]) was “inactive”. The Activity (Mus musculus [7]) was 30%.

`Clc1ccccc1CCC1=NCCN1` showed an IC50 (Nischarin [1]) of 4260 nM, a Ki [2] of 1.5 nM and a Ki [3] of 295 nM. The Ratio (Rattus norvegicus [4]) was 2840, the Ratio (Rattus norvegicus [5]) was 197 and the Activity (Mus musculus [6]) was “inactive”. For the same compound, the Activity (Mus musculus [8]) was -34%.

For `c1ccc2c(CCC3=NCCN3)cccc2c1`, the IC50 (Nischarin [1]) was 25800 nM, the Ki [2] was 1.16 nM and the Ki [3] was 381 nM. For the same compound, the Ratio (Rattus norvegicus [4]) was 22300, the Ratio (Rattus norvegicus [5]) was 328 and the Activity (Mus musculus [6]) was “inactive”. It also gave an Activity (Mus musculus [7]) of 16%.

Compound `c1cncc(CCC2=NCCN2)c1` has an IC50 (Nischarin [1]) of 212000 nM, a Ki [2] of 414 nM and a Ki [3] of 64800 nM. The Ratio (Rattus norvegicus [4]) was 512, the Ratio (Rattus norvegicus [5]) was 157 and the Activity (Mus musculus [6]) was “inactive”. The Activity (Mus musculus [7]) was 23%.

Compound `O=[N+]([O-])c1cccc(-c2ccccc2CCC2=NCCN2)c1` has an IC50 (Nischarin [1]) of 4000 nM, a Ki [2] of 252 nM and a Ki [3] of 1120 nM. For the same compound, the Ratio (Rattus norvegicus [4]) was 16, the Ratio (Rattus norvegicus [5]) was 4.4 and the Activity (Mus musculus [9]) was “inactive”. It also gave an Activity (Mus musculus [10]) of -29%.

For `c1ccc(CCC2=NCCN2)cc1` [PHENYZOLINE], the Activity (Mus musculus [11]) was “Active”, the Ki [2] was 2.5 nM and the Ki [3] was 1980 nM. For the same compound, the Ratio (Rattus norvegicus [4]) was 1480, the Ratio (Rattus norvegicus [5]) was 794 and the pKi [12] was 8.6. For the same compound, the Activity (Mus musculus [7]) was 60%, the Activity (Mus musculus [13]) was “inactive” and the Activity (Mus musculus [14]) was “inactive”.

With `c1ccc(-c2ccccc2CCC2=NCCN2)cc1` the Activity (Mus musculus [11]) was “Active”, the Ki [2] was 158 nM and the Ki [3] was 7130 nM. For the same compound, the Ratio (Rattus norvegicus [4]) was 40, the Ratio (Rattus norvegicus [5]) was 45 and the Ki (Nischarin [15]) was 6340 nM. The pKi [12] was 6.8, the Activity (Mus musculus [8]) was -41% and the Activity (Mus musculus [13]) was “inactive”. For the same compound, the Activity (Mus musculus [14]) was “inactive”.

`c1c[nH]c(CCC2=NCCN2)c1` showed an IC50 (Nischarin [1]) of 23900 nM, a Ki [2] of 254 nM and a Ki [3] of 3540 nM. The Ratio (Rattus norvegicus [4]) was 94, the Ratio (Rattus norvegicus [5]) was 13.9 and the Activity (Mus musculus [6]) was “inactive”. It also gave an Activity (Mus musculus [7]) of 14%.

In the case of `Oc1ccccc1CCC1=NCCN1`, the IC50 (Nischarin [1]) is reported as 7300 nM, the Ki [2] is reported as 73.5 nM and the Ki [3] is reported as 926 nM. For the same compound, the Ratio (Rattus norvegicus [4]) was 99.3, the Ratio (Rattus norvegicus [5]) was 12.6 and the Activity (Mus musculus [6]) was “inactive”. For the same compound, the Activity (Mus musculus [8]) was -26%.
